Laboratory results as given in patent US20210260101A1, “POTENTIATED ANTIBIOTIC COMPOSITIONS AND METHODS OF USE FOR TREATING BACTERIAL INFECTIONS AND BIOFILMS” (priority 2018, published 2021).
Several values for one entry are separate records, joined by “and”; a condition that tells them apart may be missing. Identical values can stand only once. Like-named read-outs stand apart in the source and are kept apart here.

Legend:
[1] = test system: clinical isolates OU15, OU19, and OU22; test: Checkerboard assay, isolates OU15, OU19 and OU22 reported together; assay type: cell-based, Pseudomonas aeruginosa; details: Pseudomonas aeruginosa
Protocol: (§1) Cells were grown at 35° C. with shaking. The OD600 (optical density at 600 nm) was monitored and recorded for each sample over 24 hr. Each checkerboard trial was done in triplicate using sterile Greiner CellStar™ flat bottom polystyrene plates, catalog #655180. Each growth curve was done in duplicate.

[2] = test system: P. aeruginosa ATCC BAA-47; test: Checkerboard assay (Example 5), PA BAA-47; assay type: cell-based, Pseudomonas aeruginosa
Protocol: as §1

PA OU15 = test: Checkerboard assay, PA OU15; assay type: cell-based, Pseudomonas aeruginosa
Protocol: as §1

[3] = test system: biofilms of P. aeruginosa BAA-47; test: MBEC assay (Calgary biofilm device), PA BAA-47; assay type: cell-based, Pseudomonas aeruginosa
Protocol: A sub-culture of P. aeruginosa BAA-47 was grown from the cryogenic stock on an agar plate overnight at 35° C. The MBEC plate was inoculated with 150 μL of CAMHB/well plus 1 μL of a stock culture made from 1 colony/mL of P. aeruginosa BAA-47 in CAMHB (˜5×10^5 CFU/mL). The MBEC inoculator plate was sealed with Parafilm™ and incubated for 24 hr at 35° C. with 100 rpm shaking to facilitate biofilm formation on the prongs. Following biofilm formation, the lid of the MBEC inoculator was removed and placed in a rinse plate containing 200 μL of sterile PBS for 10 sec. […] Antimicrobial solutions were serial-diluted and added to the 96-well plate, which contained 200 μL of CAMHB per well. After the rinsing step, the preformed biofilm prong lid was immediately transferred into the prepared antimicrobial challenge plate and incubated at 35° C. for 20-24 hr. […] After incubation, the OD600 of the recovery plate was measured using a Tecan Infinite M20 plate reader to determine the MBEC of the antimicrobial compounds tested. […] Likewise, the OD600 for the base of the challenge plate was measured to determine the MICs of the antimicrobial compounds. The fractional inhibitory concentration index (FICI) calculated based on the established equation was used to determine synergy (FICI≤0.5), additivity (0.5<FICI<1), and no synergy (FICI≥1).

PA OU22 = test: Checkerboard assay, PA OU22; assay type: cell-based, Pseudomonas aeruginosa
Protocol: as §1

[4] = test system: P. aeruginosa OU1 (PA OU1); test: Checkerboard assay, clinical isolate PA OU1; assay type: cell-based, Pseudomonas aeruginosa
Protocol: (§2) Cells were grown at 37° C. The change in OD600 (optical density at 600 nm) was measured and recorded after 24 hr of treatment. Each checkerboard trial was done in triplicate using sterile Greiner CellStar™ flat bottom polystyrene plates, catalog #655180.
as §1

MRSA USA 300 ATCC 1717 = test: Checkerboard MIC assay against MRSA USA300 (Example 1); assay type: cell-based, Staphylococcus aureus; details: MRSA USA300
MRSE ATCC 29887 biofilm = test: MBEC assay (challenge plate MIC, recovery plate MBEC), MRSE 29887; assay type: cell-based, Staphylococcus epidermidis
Protocol: A sub-culture of MRSE was grown from the cryogenic stock on an agar plate overnight at 35° C. The MBEC plate was inoculated with 150 μL of TSB/well plus 1 μL of a stock culture made from 1 colony/mL of MRSE in TSB. The MBEC inoculator plate was sealed with Parafilm and incubated for 24 hours at 35° C. with 100 rpm shaking to facilitate biofilm formation on the prongs. Following biofilm formation, the lid of the MBEC inoculator was removed and placed in a rinse plate containing 200 μL of sterile PBS for 10 sec. Biofilm growth check (BGC) was performed by breaking a few prongs off using sterile pliers, submerging them in 1 mL PBS, and sonicating them on high for 30 minutes to dislodge the biofilm. After sonication, the biofilm solution was serial-diluted and spot-plated on agar plates for CFU counting to determine the biofilm density on the prongs.
A challenge plate was made in a new pre-sterilized 96-well plate in a checkerboard-assay pattern to test the synergistic activity of BPEI+antibiotic combinations. […] After incubation, the OD600 (optical density at 600 nm) of the recovery plate was measured using a Tecan Infinite M20 plate reader to determine the MBEC of the antimicrobial compounds tested. […] Likewise, the OD600 for the base of the challenge plate was measured […] to determine the MICs of the antimicrobial compounds.

[5] = test system: MRSE 35984 biofilm formation; test: Crystal violet biofilm formation inhibition (MBIC); assay type: cell-based, Staphylococcus epidermidis
Text: Additionally, higher concentrations of BPEI corresponded to greater inhibition of biofilm formation.

[6] = test system: P. aeruginosa PA01 ATCC BAA-47; test: MIC/potentiation against P. aeruginosa PA01 (Example 1); assay type: cell-based, Pseudomonas aeruginosa; details: higher inoculum, 5 × 10^7 CFU/ml
P. aeruginosa 27853 = test: Checkerboard assay, P. aeruginosa 27853; assay type: cell-based, Pseudomonas aeruginosa
Protocol: as §2, §1

PA OU19 = test: Checkerboard assay, PA OU19; assay type: cell-based, Pseudomonas aeruginosa
Protocol: as §1

PA OU12 = test: Checkerboard assay, PA OU12; assay type: cell-based, Pseudomonas aeruginosa
Protocol: as §1

E. coli 25922 = test: MIC/potentiation against E. coli 25922; assay type: cell-based, Escherichia coli; details: 3×10^5 CFU/mL

For `CCN1CCN(C(=O)N[C@@H](C(=O)N[C@@H]2C(=O)N3[C@@H]2SC(C)(C)[C@@H]3C(=O)O)c2ccccc2)C(=O)C1=O` [piperacillin], the MIC ([1]; read-out: piperacillin MIC with BPEI600 at ¼th of its MIC value) was 1 to 4 µg/mL, the MIC ([1]; isolates OU15, OU19, OU22, agent alone (data not shown), read-out: MIC) was > 256 µg/mL and the “PIP MIC in combination with BPEI600” value ([2]; BPEI600 amount in same cell) was 1 µg/mL. The MIC ([2]; Pseudomonas aeruginosa, PA BAA-47, agent alone) was 4 µg/mL, the “PIP MIC in combination with BPEI600” value (PA OU15; BPEI600 amount in same cell) was 32 µg/mL and the MIC (PA OU15; Pseudomonas aeruginosa, PA OU15, agent alone, read-out: MIC) was 128 µg/mL. For the same compound, the “piperacillin MBEC in combination with BPEI600” value ([3]; 16 μg/mL of BPEI) was 8 µg/mL, the MBEC ([3]; P. aeruginosa BAA-47 biofilm, agent alone) was 256 µg/mL and the “PIP MIC in combination with BPEI600” value (PA OU22; BPEI600 amount in same cell) was 4 µg/mL. For the same compound, the MIC (PA OU22; Pseudomonas aeruginosa, PA OU22, agent alone, read-out: MIC) was > 256 µg/mL, the “PIP MIC in combination with 600 Da BPEI” value [4] was 8 µg/mL and 4 µg/mL and the “PIP MIC in combination with PEG-BPEI” value ([4]; PEG-BPEI amount in same cell) was 4 µg/mL. For the same compound, the MIC ([4]; Pseudomonas aeruginosa, PA OU1, agent alone, piperacillin only, no tazobactam) was 64 µg/mL, the “PIP MIC in combination with 600 Da BPEI” value ([4]; listed as PIP) was 4 µg/mL and the “MIC with 4 μg/ml (6.75 μM) 600-Da BPEI” value (MRSA USA 300 ATCC 1717) was 1 µg/mL. The MIC (MRSA USA 300 ATCC 1717; Staphylococcus aureus, agent alone, read-out: MIC of antibiotic only) was 4 µg/mL, the “piperacillin concentration eradicating biofilms with 128 μg/mL BPEI” value (MRSE ATCC 29887 biofilm; MRSE 29887 biofilm) was 64 µg/mL and the MIC (MRSE ATCC 29887 biofilm; Staphylococcus epidermidis, MRSE 29887, agent alone) was 512 µg/mL. For the same compound, the “piperacillin concentration preventing biofilm growth with 8 μg/mL of BPEI” value [5] was 16 µg/mL, the “piperacillin concentration preventing biofilm growth with 16 μg/mL of BPEI” value [5] was 8 µg/mL and the “Minimum Biofilm Inhibitory Concentration (MBIC)” value ([5]; agent alone, 24 hours) was 64 µg/mL. The “MIC, antibiotic + 0.5 μg/ml (0.85 μM) 600-Da BPEI” value [6] was 16 µg/mL, the “MIC, antibiotic + 4 μg/ml (4.25 μM) PEG350BPEI600” value [6] was 32 µg/mL and the “PIP MIC in combination with 600 Da BPEI” value (P. aeruginosa 27853; BPEI amount in same cell) was 0.25 µg/mL. For the same compound, the “PIP MIC in combination with PEG-BPEI” value (P. aeruginosa 27853; PEG-BPEI amount in same cell) was 0.5 µg/mL, the MIC (P. aeruginosa 27853; Pseudomonas aeruginosa, PA 27853, agent alone, piperacillin only, no tazobactam) was 4 µg/mL and the “PIP MIC in combination with BPEI600” value (PA OU19; BPEI600 amount in same cell) was 1 µg/mL. For the same compound, the MIC (PA OU19; Pseudomonas aeruginosa, PA OU19, agent alone, read-out: MIC) was > 256 µg/mL, the “PIP MIC in combination with BPEI600” value (PA OU12; BPEI600 amount in same cell) was 8 µg/mL and the MIC (PA OU12; Pseudomonas aeruginosa, PA OU12, agent alone) was 128 µg/mL. It also gave an MIC (E. coli 25922; Escherichia coli, 25922, read-out: piperacillin MIC with 8 μg/mL (13.6 μM) of BPEI600) of 0.125 µg/mL, an MIC (E. coli 25922; Escherichia coli, 25922, read-out: piperacillin MIC with 32 μg/mL (34 μM) of PEG350-BPEI600) of 0.25 µg/mL and an MIC (E. coli 25922; Escherichia coli, 25922, alone, read-out: piperacillin MIC) of 1 µg/mL.
